Laboratory results as given in patent publication US10954252B1, “Inhibitors of human immunodeficiency virus replication” (ViiV HEALTHCARE UK (NO.5) LIMITED, priority 2017, dated 2021).

Tests used:
[1] = test system: recombinant NL4-3 virus (nef section replaced with Renilla luciferase gene) in MT-2 cells; assay: HIV cell culture assay (antiviral activity, luciferase readout); format: cell-based; details: MT-2 cells infected for 4-5 days with recombinant NL4-3 luciferase virus
Description: HIV cell culture assay—MT-2 cells, 293T cells and the proviral DNA clone of NL4-3 virus were obtained from the NIH AIDS Research and Reference Reagent Program. MT-2 cells were propagated in RPMI 1640 media supplemented with 10% heat inactivated fetal bovine serum (FBS), 100 μg/ml penicillin G and up to 100 units/mL streptomycin. The 293T cells were propagated in DMEM media supplemented with 10% heat inactivated FBS, 100 μg/mL penicillin G and 100 μg/mL streptomycin. A recombinant NL4-3 proviral clone, in which a section of the nef gene was replaced with the Renilla luciferase gene, was used to make the reference virus used in these studies. The recombinant virus was prepared through transfection of the recombinant NL4-3 proviral clone into 293T cells using Transit-293 Transfection Reagent from Mirus Bio LLC (Madison, Wis.). Supernatent was harvested after 2-3 days and the amount of virus present was titered in MT-2 cells using luciferase enzyme activity as a marker by measuring luciferase enzyme activity. Luciferase was quantitated using the EnduRen Live Cell Substrate from Promega (Madison, Wis.). Antiviral activities of compounds toward the recombinant virus were quantified by measuring luciferase activity in MT-2 cells infected for 4-5 days with the recombinant virus in the presence of serial dilutions of the compound.
The 50% effective concentration (ECs) was calculated by using the exponential form of the median effect equation where (Fa)=1/[1+(ED50/drug conc.)^m] (Johnson Va., Byington RT. Infectivity Assay. In Techniques in HIV Research. ed. Aldovini A, Walker BD. 71-76. New York: Stockton Press. 1990).

[2] = Compound cytotoxicity, XTT-based colorimetric assay; format: cell-based; details: human, uninfected MT2 cells
Description: Compound cytotoxicity and the corresponding CC50 values were determined using the same protocol as described in the antiviral assay except that uninfected cells were used. Cytotoxicity was assessed on day 4 in uninfected MT2 cells by using a XTT (2,3-bis[2-Methoxy-4-nitro-5-sulfophenyl]-2H-tetrazolium-5-carboxyanilide inner salt)-based colorimetric assay (Sigma-Aldrich, St Louis, Mo.). Biological data for select compounds of the invention are contained in Table 1 and Table 1a

## CC(C)c1ccc(-c2cc3[nH]ccc3nc2[C@@H](Cc2cc(F)cc(F)c2)NC(=O)Cn2nc(C(F)F)c3c2C(F)(F)[C@@H]2C[C@H]32)cn1 [Example 85, 2-((3bS,4aR)-3-(difluoromethyl)-5,5-difluoro-3b,4,4a,5-tetrahydro-1H-cyclopropa[3,4]cyclopenta[1,2-c]pyrazol-1-yl)-N—((R)-2-(3,5-difluorophenyl)-1-(6-(6-isopropylpyridin-3-yl)-1H-pyrrolo[3,2-b]pyridin-5-yl)ethyl)acetamide]
[1]; Renilla, NL43, Table 1a
  EC50: 299 nM
[2]; Table 1a, day 4, XTT
  CC50 at 4 days: > 3160 nM

## Cn1nc(NS(C)(=O)=O)c2c(Cl)ccc(-n3c([C@H](Cc4cc(F)cc(F)c4)NC(=O)Cn4nc5c(c4C(F)F)CCC5)nc4ncccc4c3=O)c21 (single isomer, unassigned) [Example 48.2]
[1]; Renilla, NL43, Table 1a
  EC50: 0.16 nM
[2]; Table 1a, day 4, XTT
  CC50 at 4 days: > 1000 nM

## O=C(Cn1nc(C(F)F)c2c1C(F)(F)[C@@H]1C[C@H]21)N[C@@H](Cc1cc(F)cc(F)c1)c1nc2cn[nH]c2cc1-c1ccc(S(=O)(=O)N2CCOCC2)cc1 [Example 25, 2-((3bS,4aR)-3-(difluoromethyl)-5,5-difluoro-3b,4,4a,5-tetrahydro-1H-cyclopropa[3,4]cyclopenta[1,2-c]pyrazol-1-yl)-N—((S)-2-(3,5-difluorophenyl)-1-(6-(4-(morpholinosulfonyl)phenyl)-1H-pyrazolo[4,3-b]pyridin-5-yl)ethyl)acetamide]
[1]; Renilla, NL43, Table 1a
  EC50: 5.78 nM
[2]; Table 1a, day 4, XTT
  CC50 at 4 days: 7940 nM

## CN(c1nn(C)c2c(-c3cc4c(ccn4C)nc3[C@H](Cc3cc(F)cc(F)c3)NC(=O)Cn3nc(C(F)F)c4c3C(F)(F)[C@@H]3C[C@H]43)ccc(Cl)c12)S(C)(=O)=O (single isomer, unassigned) [Example 64]
[1]; Renilla, NL43, Table 1a
  EC50: 4 nM
[2]; Table 1a, day 4, XTT
  CC50 at 4 days: > 10000 nM

## Cn1nc(NS(C)(=O)=O)c2c(Cl)ccc(-n3c([C@H](Cc4cc(F)cc(F)c4)NC(=O)Cn4nc(C(F)F)c5c4C(F)(F)[C@@H]4C[C@H]54)nc4ccccc4c3=O)c21 (single isomer, unassigned) [Example 16]
[1]; Renilla, NL43, Table 1
  EC50: 49 nM
[2]; Table 1, day 4, XTT
  CC50 at 4 days: > 10000 nM

## CCOc1ccc2c(=O)n(-c3ccc(Cl)c4c(NS(C)(=O)=O)nn(C)c34)c([C@H](Cc3cc(F)cc(F)c3)NC(=O)Cn3ccc(C4CC4)n3)nc2n1 (single isomer, unassigned) [Example 59.1]
[1]; Renilla, NL43, Table 1a
  EC50: 47 nM
[2]; Table 1a, day 4, XTT
  CC50 at 4 days: > 1000 nM

## COc1c(F)ccc2c(=O)n(-c3ccc(Cl)c4c(NS(C)(=O)=O)nn(C)c34)c([C@H](Cc3cc(F)cc(F)c3)NC(=O)Cn3nc(C(F)F)c4c3C(F)(F)[C@@H]3C[C@H]43)nc12 (single isomer, unassigned) [Example 109]
[1]; Table 1a
  EC50: 118 nM
[2]; Table 1a, day 4, XTT
  CC50 at 4 days: > 1000 nM

## Cn1nc(NS(C)(=O)=O)c2c(Cl)ccc(-c3cc4[nH]ncc4nc3[C@H](Cc3cc(F)cc(F)c3)NC(=O)Cn3nc(C(F)F)c4c3C(F)(F)[C@@H]3C[C@H]43)c21 [Example 3.7, N—((S)-1-(6-(4-chloro-1-methyl-3-(methylsulfonamido)-1H-indazol-7-yl)-1H-pyrazolo[4,3-b]pyridin-5-yl)-2-(3,5-difluorophenyl)ethyl)-2-((3bS,4aR)-3-(difluoromethyl)-5,5-difluoro-3b,4,4a,5-tetrahydro-1H-cyclopropa[3,4]cyclopenta[1,2-c]pyrazol-1-yl)acetamide]
[1]; Renilla, NL43, Table 1
  EC50: 1.2 nM
[2]; Table 1, day 4, XTT
  CC50 at 4 days: 33900 nM

## Cc1ccc(C)c2c(=O)n(-c3ccc(Cl)c4c(NS(C)(=O)=O)nn(C)c34)c([C@H](Cc3cc(F)cc(F)c3)NC(=O)Cn3nc(C(F)F)c4c3C(F)(F)[C@@H]3C[C@H]43)nc12 (single isomer, unassigned) [Example 68]
[1]; Renilla, NL43, Table 1a
  EC50: 4.69 nM
[2]; Table 1a, day 4, XTT
  CC50 at 4 days: > 1000 nM

## O=C(Cc1c[nH]c2ccc(F)cc12)NC(Cc1cc(F)cc(F)c1)c1nc2cn[nH]c2cc1-c1ccc2scnc2c1 (single isomer, unassigned) [Example 3.5, N-(1-(6-(benzo[d]thiazol-5-yl)-1H-pyrazolo[4,3-b]pyridin-5-yl)-2-(3,5-difluorophenyl)ethyl)-2-(5-fluoro-1H-indol-3-yl)acetamide]
[1]; Table 1
  EC50: 20 nM
[2]; Table 1, day 4, XTT
  CC50 at 4 days: 32100 nM

## Cn1nc(NS(C)(=O)=O)c2c(Cl)ccc(-n3c([C@H](Cc4cc(F)cc(F)c4)NC(=O)Cc4c[nH]c5ccc(O)cc45)nc4ncccc4c3=O)c21 [Example 53, N-[(1S)-1-[3-(4-chloro-3-methanesulfonamido-1-methyl-1H-indazol-7-yl)-4-oxo-3H,4H-pyrido[2,3-d]pyrimidin-2-yl]-2-(3,5-difluorophenyl)ethyl]-2-(5-hydroxy-1H-indol-3-yl)acetamide]
[1]; Renilla, NL43, Table 1a
  EC50: 5.71 nM
[2]; Table 1a, day 4, XTT
  CC50 at 4 days: > 1000 nM

## Cn1ccc2nc([C@@H](Cc3cc(F)cc(F)c3)NC(=O)Cn3nc(C(F)F)c4c3C(F)(F)[C@@H]3C[C@H]43)c(-c3ccc(Cl)c4c(NS(C)(=O)=O)nn(C)c34)cc21 (single isomer, unassigned) [Example 121]
[1]; Renilla, NL43, Table 1a
  EC50: 171 nM
[2]; Table 1a, day 4, XTT
  CC50 at 4 days: > 10000 nM

## COc1ccc(-n2c([C@H](Cc3cc(F)cc(F)c3)NC(=O)Cn3nc(C(F)F)c4c3C(F)(F)[C@@H]3C[C@H]43)nc3ncccc3c2=O)cn1 [Example 29, 2-[(2S,4R)-9-(difluoromethyl)-5,5-difluoro-7,8-diazatricyclo[4.3.0.0^2,4]nona-1(6),8-dien-7-yl]-N-[(1S)-2-(3,5-difluorophenyl)-1-[3-(6-methoxypyridin-3-yl)-4-oxo-3H,4H-pyrido[2,3-d]pyrimidin-2-yl]ethyl]acetamide]
[1]; Renilla, NL43, Table 1a
  EC50: 26 nM
[2]; Table 1a, day 4, XTT
  CC50 at 4 days: > 10000 nM

## O=C(Cn1nc(C(F)F)c2c1C(F)(F)[C@@H]1C[C@H]21)N[C@@H](Cc1cc(F)cc(F)c1)c1nc2ncccc2c(=O)n1-c1ccc(Cl)c2c(NS(=O)(=O)C3CC3)nn(CC(F)F)c12 (mixture of isomers) [Example 45.2, N-[(1S)-1-{3-[4-chloro-3-cyclopropanesulfonamido-1-(2,2-difluoroethyl)-1H-indazol-7-yl]-4-oxo-3H,4H-pyrido[2,3-d]pyrimidin-2-yl}-2-(3,5-difluorophenyl)ethyl]-2-[(2S,4R)-9-(difluoromethyl)-5,5-difluoro-7,8-diazatricyclo[4.3.0.0^2,4]nona-1(6),8-dien-7-yl]acetamide]
[1]; Renilla, NL43, Table 1a
  EC50: 0.024 nM
[2]; Table 1a, day 4, XTT
  CC50 at 4 days: > 1000 nM

## CNC(=O)c1cc(-c2cc3[nH]ncc3nc2[C@H](Cc2cc(F)cc(F)c2)NC(=O)Cn2nc(C(F)F)c3c2C(F)(F)[C@@H]2C[C@H]32)ccc1F [Example 10.7, 5-(5-((S)-1-(2-((3bS,4aR)-3-(difluoromethyl)-5,5-difluoro-3b,4,4a,5-tetrahydro-1H-cyclopropa[3,4]cyclopenta[1,2-c]pyrazol-1-yl)acetamido)-2-(3,5-difluorophenyl)ethyl)-1H-pyrazolo[4,3-b]pyridin-6-yl)-2-fluoro-N-methylbenzamide]
[1]; Renilla, NL43, Table 1
  EC50: 51 nM
[2]; Table 1, day 4, XTT
  CC50 at 4 days: > 10000 nM

## Cn1nc(NS(C)(=O)=O)c2c(Cl)ccc(-c3cc4[nH]ncc4nc3[C@@H](Cc3cc(F)cc(F)c3)NC(=O)Cn3nc(C(F)F)c4c3C(F)(F)[C@@H]3C[C@H]43)c21 [Example 3.8, N—((R)-1-(6-(4-chloro-1-methyl-3-(methylsulfonamido)-1H-indazol-7-yl)-1H-pyrazolo[4,3-b]pyridin-5-yl)-2-(3,5-difluorophenyl)ethyl)-2-((3bS,4aR)-3-(difluoromethyl)-5,5-difluoro-3b,4,4a,5-tetrahydro-1H-cyclopropa[3,4]cyclopenta[1,2-c]pyrazol-1-yl)acetamide]
[1]; Renilla, NL43, Table 1
  EC50: 21 nM
[2]; Table 1, day 4, XTT
  CC50 at 4 days: 10200 nM

## CS(=O)(=O)NC(=O)c1cc(-c2cc3[nH]ncc3nc2[C@H](Cc2cc(F)cc(F)c2)NC(=O)Cn2nc(C(F)F)c3c2C(F)(F)[C@@H]2C[C@H]32)ccc1Cl [Example 10.18, 2-Chloro-5-(5-((S)-1-(2-((3bS,4aR)-3-(difluoromethyl)-5,5-difluoro-3b,4,4a,5-tetrahydro-1H-cyclopropa[3,4]cyclopenta[1,2-c]pyrazol-1-yl)acetamido)-2-(3,5-difluorophenyl)ethyl)-1H-pyrazolo[4,3-b]pyridin-6-yl)-N-(methylsulfonyl)benzamide]
[1]; Renilla, NL43, Table 1
  EC50: 670 nM
[2]; Table 1, day 4, XTT
  CC50 at 4 days: > 10000 nM

## COc1ccc2c(=O)n(-c3ccc(Cl)c4c(NS(C)(=O)=O)nn(CC(F)F)c34)c([C@H](Cc3cc(F)cc(F)c3)NC(=O)Cn3ccc(C4CC4)n3)nc2n1 (atropisomer, axis not shown) [Example 55.1, N-[(1S)-1-{3-[4-chloro-1-(2,2-difluoroethyl)-3-methanesulfonamido-1H-indazol-7-yl]-7-methoxy-4-oxo-3H,4H-pyrido[2,3-d]pyrimidin-2-yl}-2-(3,5-difluorophenyl)ethyl]-2-(3-cyclopropyl-1H-pyrazol-1-yl)acetamide]
[1]; Table 1a
  EC50: 28.5 nM
[2]; Table 1a, day 4, XTT
  CC50 at 4 days: > 1000 nM
